Results on 2 compounds are retold here after patent US12325696B2, “Indazole derivative, preparation method therefor, and pharmaceutical application thereof” (JIANGSU HENGRUI MEDICINE CO., LTD., priority 2019, dated 2025).

Structures are written as SMILES. pIC50: −log10 of the molar value.

The subject of data set [1] is estrogen receptor reporter gene. Briefly: Inhibition of estrogen receptor reporter gene activity (ERE-luc luciferase) in MCF7/ERE-luc cells. Conditions: Homo sapiens, 0.1 nM β-estradiol, 20 hours, read-out: IC50 of inhibitory activity on the activity of the estrogen receptor reporter gene. The data set is classed as cell-based. In outline: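 MCF7 cells stably carrying ERE-driven luciferase, in charcoal-stripped serum medium, were stimulated with 0.1 nM β-estradiol plus compound (nine 10-fold dilutions from 10 μM) for 20 h at 37° C. ONE-Glo luminescence was read, and IC50 was fitted from signal versus log concentration.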

The subject of a further data set is MCF7 cell. As to the kind of experiment: Inhibition of proliferation of MCF7 cell (CellTiter-Glo, 144 hours). The note with it: Homo sapiens. The data set is classed as cell-based. The method in brief:
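Seeded overnight, MCF7 cells were treated in MEM with 2% FBS with nine 4-fold dilutions from 100 nM (0.5% DMSO blank). Incubation 144 h at 37° C, 5% CO2. CellTiter-Glo luminescence read; IC50 from signal versus log concentration.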

A further data set deals with MCF7 D538G. As to the kind of experiment: Inhibition of proliferation of MCF7 cell expressing ERα D538G mutant. The data set is classed as cell-based. The note with it: Homo sapiens, 144 hours. In outline: (§1)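 MCF7 cells stably expressing lentiviral ERα Y537S or D538G mutants, seeded 3,000 cells/well, then exposed in 2% FBS MEM to nine 4-fold dilutions from 100 nM for 144 h at 37° C. Viability read by CellTiter-Glo luminescence; IC50 fitted from concentration-response.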

In the next data set the test system is MCF7 ERαY537S. As to the kind of experiment: Inhibition of proliferation of MCF7 cell expressing ERα Y537S mutant. The format is cell-based. The note with it: Homo sapiens, 144 hours. The method in brief:
as §1

The target in data set [2] is estrogen receptor ERα wild-type (Homo sapiens (Human), UniProt P03372). As to the kind of experiment: Covalent modification of ERα wild-type LBD by high-resolution mass spectrometry. The data set is classed as binding. Conditions: after 24 hours; 2 μM protein, 10 μM compound, 4° C. How it is done:
(§2) The ligand binding domain (LBD, aa296-554) of estrogen receptor ERα wild-type and ERα Y537S mutant-type was expressed in E. coli and purified. 2 μM ERα wild-type or ERα Y537S mutant-type protein and 10 μM compound were added to a buffer solution containing 50 mM Tris-HCl, pH7.5, 150 mM NaCl, 1 mM TCEP and 5% glycerol and mixed well. The solution was incubated at 4° C. for 24 hours, followed by high-resolution mass spectrometry (Agilent Technologies, Agilent Q-tof 6530) assay. Alternatively, 1 μM ERα wild-type or ERα Y537S mutant-type protein and 3 μM compound were added to a buffer solution containing 50 mM Tris-HCl, pH7.5, 150 mM NaCl, 1 mM TCEP and 5% glycerol and mixed well. The solution was incubated at 37° C. for 15 minutes, followed by high-resolution mass spectrometry assay. In the mass spectrometry assay results, the peak whose molecular weight is the sum of the molecular weight of the protein and compound is the product of covalent modification. The percentage of covalent modification is obtained by calculating the ratio of […] to total protein.

The target in data set [3] is estrogen receptor ERα Y537S mutant-type (Homo sapiens (Human), UniProt P03372, Y537S). Briefly: Covalent modification of ERα Y537S mutant-type LBD by high-resolution mass spectrometry. Conditions: after 24 hours; 2 μM protein, 10 μM compound, 4° C. The format is binding. How it is done: as §2
Sequence of estrogen receptor ERα Y537S mutant-type (P03372 296-554 Y537S): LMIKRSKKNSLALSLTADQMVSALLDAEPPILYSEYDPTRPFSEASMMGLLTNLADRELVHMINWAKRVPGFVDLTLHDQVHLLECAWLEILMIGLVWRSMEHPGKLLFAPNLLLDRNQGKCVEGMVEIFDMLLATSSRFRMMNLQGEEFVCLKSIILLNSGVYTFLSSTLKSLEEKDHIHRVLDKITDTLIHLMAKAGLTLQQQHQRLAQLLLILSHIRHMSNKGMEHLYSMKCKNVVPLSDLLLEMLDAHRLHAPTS
The target of a further data set is Nav1.5 ion channel (Homo sapiens (Human), UniProt Q14524). Briefly: Manual patch clamp inhibition of Nav1.5 current in HEK293 cell. Conditions: whole-cell patch clamp, read-out: IC50 on inhibiting the Nav1.5 channel activity. The data set is classed as cell-based. The protocol:
The purpose of the experiment is to investigate the effect of the compounds on Nav1.5 ion channel in an […] experiment. Nav1.5 ion channel is stably expressed on HEK293 cell. After the Nav1.5 current becomes stable, the Nav1.5 currents before and after the administration of the compound are compared so as to obtain the effect of the compound on the Nav1.5 ion channel.
Extracellular fluid: NaCl, 137 mM; KCl, 4 mM; CaCl2), 1.8 mM; MgCl2, 1 mM; HEPES, 10; glucose, 10 mM; pH 7.4 (NaOH titration).
Intracellular fluid: aspartic acid, 140 mM; MgCl2, 2 mM; EGTA, 11 mM; HEPES, 10 mM; pH 7.2 (CsOH titration).
The test compound was dissolved in dimethyl sulfoxide (DMSO) at a stock concentration of 9 mM. The stock solution of the test compound was dissolved in the extracellular fluid on the day of the test and formulated into the required concentration.
1) The compound was formulated into solutions with specified concentrations. The solutions were added to the pipelines respectively in order from high to low concentration, and the pipelines were marked.
2) The cell was transferred to the perfusion tank, and perfused with the extracellular fluid. The intracellular fluid was stored in small batches in a −80° C. refrigerator, and melted on the day of the experiment. The electrode was pulled with PC-10 (Narishige, Japan). Recording was carried out with the whole-cell patch clamp, and the noise was filtered at one-fifth of the sampling frequency.
3) All compounds were perfused with a perfusion system that uses its own gravity. Each concentration was tested in at least two cells. After the current stabilized (or after 5 minutes), the blocking effect of the compound was calculated by comparing the changes in the current before and after the administration of the compound.
The cell was clamped at −80 mV. The cell was depolarized to Vhalf with a square wave lasting 8 milliseconds, hyperpolarized to −120 mV with a square wave lasting 20 milliseconds, and depolarized to −10 mV with a square wave lasting 20 milliseconds to obtain the Nav1.5 current. This procedure was repeated every 15 seconds. The maximum current caused by the −10 mV square wave was measured. After the current became stable, the test compound was perfused. After the response became stable, the blocking intensity was calculated.
The data was stored in the computer system for analysis. Data collection and analysis were carried out by pCLAMP 10 (Molecular Devices, Union City, CA). Stable current means that the absolute average value of the peak current of four consecutive scans exceeds 200 pA and the CV value is less than 10%, or the average value of the peak current of four consecutive scans is between 200 pA and 50 pA and the CV value is less than 30%. The average value of the last four current peaks after the current stabilized was used to calculate the effect of the compound at the concentration.

Sequence of estrogen receptor ERα wild-type (P03372 296-554): as the sequence (P03372 296-554 Y537S) above, with S242Y counted along it
Sequence of Nav1.5 ion channel (Q14524 whole entry): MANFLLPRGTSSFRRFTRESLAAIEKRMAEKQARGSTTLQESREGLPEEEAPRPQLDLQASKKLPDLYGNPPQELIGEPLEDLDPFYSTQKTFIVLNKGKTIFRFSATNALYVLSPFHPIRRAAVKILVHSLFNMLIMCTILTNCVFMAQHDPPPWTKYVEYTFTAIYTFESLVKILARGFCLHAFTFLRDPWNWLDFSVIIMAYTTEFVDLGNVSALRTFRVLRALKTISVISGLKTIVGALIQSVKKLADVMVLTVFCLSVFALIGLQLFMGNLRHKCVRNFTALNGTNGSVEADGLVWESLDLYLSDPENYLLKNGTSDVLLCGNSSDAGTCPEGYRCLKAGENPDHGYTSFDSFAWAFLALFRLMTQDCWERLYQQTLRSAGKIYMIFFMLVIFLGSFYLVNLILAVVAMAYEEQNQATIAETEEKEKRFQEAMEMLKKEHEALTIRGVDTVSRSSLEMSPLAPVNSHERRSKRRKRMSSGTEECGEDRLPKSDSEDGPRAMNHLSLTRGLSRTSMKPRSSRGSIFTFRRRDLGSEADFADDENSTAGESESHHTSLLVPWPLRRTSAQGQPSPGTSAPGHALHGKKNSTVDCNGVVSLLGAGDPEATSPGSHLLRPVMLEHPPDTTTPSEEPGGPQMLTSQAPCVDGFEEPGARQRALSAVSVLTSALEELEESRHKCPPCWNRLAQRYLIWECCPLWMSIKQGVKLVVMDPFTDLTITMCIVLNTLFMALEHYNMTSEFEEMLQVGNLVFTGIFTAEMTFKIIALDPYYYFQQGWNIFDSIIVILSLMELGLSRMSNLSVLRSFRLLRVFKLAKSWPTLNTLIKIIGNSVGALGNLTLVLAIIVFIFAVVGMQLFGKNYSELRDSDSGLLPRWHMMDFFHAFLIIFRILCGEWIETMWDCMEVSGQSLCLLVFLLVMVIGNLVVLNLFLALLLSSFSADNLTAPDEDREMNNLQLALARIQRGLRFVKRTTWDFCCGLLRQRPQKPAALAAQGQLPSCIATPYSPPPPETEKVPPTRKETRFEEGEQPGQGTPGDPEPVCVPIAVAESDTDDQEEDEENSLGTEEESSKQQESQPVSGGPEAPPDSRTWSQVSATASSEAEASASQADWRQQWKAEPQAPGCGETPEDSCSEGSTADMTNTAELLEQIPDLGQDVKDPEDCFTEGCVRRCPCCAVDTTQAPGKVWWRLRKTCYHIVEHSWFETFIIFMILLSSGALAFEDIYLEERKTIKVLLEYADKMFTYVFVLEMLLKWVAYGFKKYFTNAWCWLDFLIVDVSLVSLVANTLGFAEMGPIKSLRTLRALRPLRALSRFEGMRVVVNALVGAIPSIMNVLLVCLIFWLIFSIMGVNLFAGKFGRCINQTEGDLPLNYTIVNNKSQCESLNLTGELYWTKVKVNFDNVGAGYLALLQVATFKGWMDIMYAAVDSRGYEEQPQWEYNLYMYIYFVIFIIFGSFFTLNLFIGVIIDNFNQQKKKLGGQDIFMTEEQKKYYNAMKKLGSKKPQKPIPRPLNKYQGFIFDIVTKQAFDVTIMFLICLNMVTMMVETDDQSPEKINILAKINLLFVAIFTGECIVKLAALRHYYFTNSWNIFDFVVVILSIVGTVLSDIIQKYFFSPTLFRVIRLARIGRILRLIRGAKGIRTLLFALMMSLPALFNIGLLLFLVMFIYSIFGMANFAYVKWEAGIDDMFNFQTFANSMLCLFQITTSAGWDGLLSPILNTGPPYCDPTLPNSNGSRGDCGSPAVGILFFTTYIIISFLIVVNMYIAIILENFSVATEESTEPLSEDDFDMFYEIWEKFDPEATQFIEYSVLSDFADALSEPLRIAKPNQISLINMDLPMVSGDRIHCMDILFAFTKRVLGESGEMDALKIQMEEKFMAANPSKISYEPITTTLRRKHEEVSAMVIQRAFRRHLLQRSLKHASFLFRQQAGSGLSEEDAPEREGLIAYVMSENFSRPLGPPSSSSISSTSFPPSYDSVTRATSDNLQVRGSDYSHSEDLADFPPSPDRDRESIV

Consider `O=C(/C=C/CN[C@H]1CCCN(c2ccc(/C(=C(/CC(F)(F)F)c3ccccc3)c3ccc4[nH]nc(F)c4c3)cn2)C1)N1CCOCC1` [Example 38, (E)-1-Morpholino-4-(((S)-1-(5-((Z)-4,4,4-trifluoro-1-(3-fluoro-1H-indazol-5-yl)-2-phenylbut-1-en-1-yl)pyridin-2-yl)piperidin-3-yl)amino)but-2-en-1-one], for which the pIC50 is 8.30 in data set [1]; 9.10 in the data set with MCF7 cell (MCF7, CellTiter-Glo, read-out: IC50 of the inhibitory effect on the proliferation of MCF7 cell); 8.70 in the data set with MCF7 D538G; 8.40 in the data set with MCF7 ERαY537S. The Emax in the data set on MCF7 cell (MCF7 cell proliferation, read-out: Maximum inhibition) was determined as 96%; with MCF7 D538G (read-out: Maximum inhibition), 108%; in the data set on MCF7 ERαY537S (read-out: Maximum inhibition), 102%. For the same compound, the “Covalent modification effect on the estrogen receptor ERα wild-type” value in data set [2] was 95%. Besides, the “Covalent modification effect on the estrogen receptor ERα Y537S mutant-type” value in data set [3] is recorded as 96%.

`O=C(/C=C/CNCCOc1ccc(/C(=C(/CC(F)(F)F)c2ccccc2)c2ccc3[nH]nc(F)c3c2)cn1)N1CCOCC1` [Example 43, (E)-1-Morpholino-4-((2-((5-((Z)-4,4,4-trifluoro-1-(3-fluoro-1H-indazol-5-yl)-2-phenylbut-1-en-1-yl)pyridin-2-yl)oxy)ethyl)amino)but-2-en-1-one, reference compound]: on Nav1.5 ion channel, the pIC50 is 5.57.
